From US20220257727A1, “PHARMACEUTICAL COMPOSITION CONTAINING LYSOZYME AND USE THEREOF” (GUANGZHOU CENTURY CLINICAL RESEARCH., LTD., priority 2019, published 2022)

Assays:
psoriasis [1] = details: human, in vivo
Source text: (§1) Psoriasis can be divided into mild, moderate, and severe according to the severity. The severity can be determined by PASI (Psoriasis Area Severity Index) scores. PASI is a set of scoring indicators that are widely used internationally to reflect the severity of psoriasis. In the scoring system, four parts, i.e., the head, upper limbs, torso, and lower limbs, are used for comprehensive scoring according to indicators such as erythema, desquamation, infiltration, and area of involvement. The higher the score, the more severe the condition of psoriasis. The specific scoring rules are well known in the field of medical diagnosis.
(§2) Ineffective: The PASI score of psoriasis after treatment is more than 50% of the score before treatment, namely, PASI after treatment÷PASI before treatment×100%>50%.

psoriasis [2] = assay: Case studies of patients with drug-resistant psoriasis (PASI score, skin state, recurrence, tolerability)
Source text: as §1, §2

[3] = Example 4, person, tretinoin cream, calcipotriol ointment and other treatments
[4] = Example 4, after tretinoin cream, calcipotriol ointment and other treatments
[5] = Example 6, person, tretinoin cream, calcipotriol ointment, methotrexate tablets and other treatments in the past
[6] = Example 6, after tretinoin cream, calcipotriol ointment, methotrexate tablets and other treatments, severe psoriasis
[7] = Example 7, after secukinumab treatment

## C=C1/C(=C\C=C2/CCC[C@]3(C)[C@@H]([C@H](C)/C=C/[C@@H](O)C4CC4)CC[C@@H]23)C[C@@H](O)C[C@@H]1O [calcipotriol ointment, calcipotriol]
Psoriasis [1]
  skin irritation: severe
Psoriasis [2]; Example 3, person, after 1 month of use
  PASI score: 5.3
Psoriasis [2]; Example 3, after 1 month of use
  PASI improvement vs before treatment: 10%
Psoriasis [2]; [3]
  effect of treatment: healed
Psoriasis [2]; [4]
  relapse: relapsed three months after the drug withdrawal
Psoriasis [2]; [5]
  effect of treatment: not alleviated
Psoriasis [2]; [6]
  PASI score: 13.8

## CN(Cc1cnc2nc(N)nc(N)c2n1)c1ccc(C(=O)N[C@@H](CCC(=O)O)C(=O)O)cc1 [methotrexate tablets, methotrexate]
Psoriasis [2]; Example 3, after relief, within two years follow-up
  relapse: relapsed twice
Psoriasis [2]; Example 3, taken after lysozyme buccal tablets withdrawal, self-reported
  effect of treatment: the psoriasis was relieved
Psoriasis [2]; Example 4, after oral methotrexate treatment
  PASI score: 9.3
Psoriasis [2]; Example 4, oral treatment after relapse
  effect of treatment: the condition was not alleviated
Psoriasis [2]; [5]
  effect of treatment: not alleviated
Psoriasis [2]; [6]
  PASI score: 13.8

## CCOC(=O)c1ccc(C#Cc2ccc3c(c2)C(C)(C)CCS3)nc1 [tazarotene cream, tazarotene]
Psoriasis [2]; Example 5, person, two months of treatment
  effect of treatment: ineffective

## CC1=C(/C=C/C(C)=C/C=C/C(C)=C/C(=O)O)C(C)(C)CCC1 [tretinoin cream, tretinoin]
Psoriasis [2]; [3]
  effect of treatment: healed
Psoriasis [2]; [4]
  relapse: relapsed three months after the drug withdrawal
Psoriasis [2]; [5]
  effect of treatment: not alleviated
Psoriasis [2]; [6]
  PASI score: 13.8

## Adalimumab
Psoriasis [2]; Example 6, after one course of treatment, PASI before 13.8
  PASI decrease: 32%

## secukinumab: IL-17 inhibitor
Psoriasis [1]
  tolerability: intolerance occurred
Psoriasis [2]; [7]
  PASI decrease: 10%
  PASI score: 8.7
